Data published in patent publication US20200407382A1, “POLYMORPHIC FORMS OF (9-[(R)-2-[[(S)-[[(S)-1-(ISOPROPOXYCARBONYL)ETHYL]AMINO]PHENOXY PHOSPHINYL]METHOXY]PROPYL] ADENINE AND PHARMACEUTICALLY ACCEPTABLE SALTS THEREOF” (CIPLA LIMITED, priority 2017, published 2020).

Experimental: FIG. 10 illustrates a dynamic vapor sorption (DVS) isotherm profile of Form C4 of (9-[(R)-2-[[(S)-[[(S)-1-(isopropoxycarbonyl)ethyl]amino] phenoxyphosphinyl] methoxy]propyl] adenine hemifumarate , according to another embodiment. For the DVS measurement a sample of crystalline Form C4 was cycled through changing humidity conditions to determine its hygroscopicity. The sample was analyzed using a Surface Measurement System DVS-1 Dynamic Vapor Sorption System. About 100 mg of crystalline Form C4 was placed into a mesh vapor sorption balance pan and loaded into a dynamic vapor sorption balance as part of the
Surface Measurement System. Data was collected in 1-minute intervals. Nitrogen was used as the carrier gas. The sampled crystalline Form C4 was subjected to a ramping profile from 0-95% relative humidity (RH) at 5 and 10% increments, maintaining the sample at each step until a stable weight had been achieved (99.5% step completion). After completion of the Sorption cycle, the sample was dried using the same procedure, but all the way down to 95% RH to 30% RH (10% RH interval) and from 30% RH to 5% RH (5% RH interval). The weight change during the Sorption/desorption cycles were plotted, allowing for the hygroscopic nature of the sample to be determined.
• 1. The hygroscopicity was studied at 25° C. using an SMS DVS intrinsic analyser. • 2. About 100 mg of sample was placed in a tared sample holder at an initial ambient room humidity. • 3. A total wet/dry nitrogen flow rate of 270 cc/min was used throughout the study. • 4. Solids were studied by performing one full cycle of the following program: 300 minutes of drying at 25° C. under dry N2, followed by settings of 0, 5, 10, 15, 20, 25, 30, 40, 50, 60, 70, 80, 90 and 95% RH, with exposure time at each humidity set point dependent upon 99.5% confidence in the F1 fit model or 60 minutes. The maximum time allowed at any one humidity set point was 60 minutes. Followed by decreasing 95% RH to 30% RH (10% RH interval) and from 30% RH to 5% RH (5% RH interval). […]. The sample was maintained under dry N2 after the cycle was completed. • 5. Percent weight gain was calculated based on the dry weight basis.

Compound: CC(C)OC(=O)[C@H](C)N[P@](=O)(CO[C@H](C)Cn1cnc2c(N)ncnc21)Oc1ccccc1 [Form C4, (9-[(R)-2-[[(S)-[[(S)-1-(isopropoxycarbonyl)ethyl]amino]phenoxyphosphinyl]methoxy]propyl]adenine hemifumarate]
- hygroscopicity (DVS isotherm) (25° C., 0-95% RH sorption/desorption cycles): non-hygroscopic
- hysteresis between sorption and desorption cycles (DVS, 0-95% RH): very small hysteresis
- change of crystalline form during DVS (XRPD post DVS vs pre-DVS) (XRPD pattern post DVS analysis compared with FIG. 4): no change in the crystalline Form C4
- increase in mass during the Sorption cycle (between 0% and 95% RH, 25° C.): about 1.7%
